# Test results from patent publication US20150119372A1, “APPLICATION OF 18-METHYL-15SS,16SS-METHYLENE-19-NOR-20-SPIROX-4-EN-3-ONE SYSTEMS IN THE TREATMENT OF MENORRHAGIA, AS WELL AS INTRAUTERINE SYSTEMS CONTAINING 18-METHYL-15SS,16SS-METHYLENE-19-NOR-20-SPIROX-4-EN-3-ONE FOR TREATING UTERINE BLEEDING DISORDERS” (BAYER PHARMA AKTIENGESELLSCHAFT, priority 2012, published 2015).
# What was measured:
# uterus = experiment: Uterine horn weight gain after implantation of progestin-containing IUS (rod) in ovary-resected rats; assay type: in vivo, rat; details: IUS (rod) in right uterine horn, FIG. 1/4
# Experimental: (§1) The local uterine action of the progestin compared to systemic side effects (dissociation) was investigated on the basis of studies using rats. The uterus of ovary-resected rats responds to implantation of progestin-containing IUS (rods) with decidualization and weight gain. The local progestin effects were also determined on the basis of changes in gene expression.
# (§2) Ovary-resected female rats were treated with estradiol (E2) for three days (0.2 μg/day/animal, subcutaneous dosing). On day 4, an IUS (rod) was implanted into the right uterine horn of each animal. The left uterine horn remained untreated for internal comparison. Administration of E2 was continued with a daily dose of 0.1 μg/animal to ensure responsiveness of the uterus (maintaining progesterone-receptor expression) to progestins. Blood was taken for LH level measurements on days 4, 10 and 17.
# [1] = In vitro (liver) break-down for humans; assay type: in vitro ADME; details: human liver in vitro
# Experimental: The rapid in-vitro breakdown in the liver may also indicate rapid in-vivo breakdown, resulting in a very low systemic exposition of 18-methyl-15β,16β-methylene-19-nor-20-spirox-4-en-3-one and 18-Methyl-6α,7α,15β,16β-dimethylene-19-nor-20-spirox-4-en-3-one after administration through an IUS being calculated. The expected substance levels (Css=concentration at steady state) are calculated from the rate of release from the IUS divided by the clearance. Using a dose of 20 μg per day and woman, which corresponds to that of Mirena, gives a calculated systemic exposition (load) for 18-methyl-15β,16β-methylene-19-nor-20-spirox-4-en-3-one and 18-methyl-6α,7α,15β,16β-dimethylene-19-nor-20-spirox-4-en-3-one, which is over 30 times lower in comparison with Mirena®.
# [2] = In vivo break-down in animal species; details: all animal species studied in vivo
# IGFBP-1 = experiment: Gene expression analysis of marker genes in uterine tissue of rats carrying IUS (rods); assay type: in vivo; details: rat uterus, FIG. 3/4
# Experimental: as §1
# as §2, with “17. […]” for “17.”
# Gene expression analysis was carried out with from 50 ng to 200 ng of cDNA per reaction on an SDS7900HT Real.time PCR system (Applied Biosystems, Carlsbad, USA) using TaqMan probes (Applied Biosystems; IGFBP-1 Rn00565713_m1, Cyp26a1 Rn00590308_m1, PPIA Rn00690933_m1) and the Fast Blue qPCR MasterMix Plus (Eurogentec, Liège, Belgium; #RT-QP2X-03+FB). For relative quantification, cyclophilin A (PPIA) was used as an endogenous control. Relative expression levels were calculated according to the comparative delta delta CT method.
# [3] = In-vitro metabolic studies (liver); assay type: in vitro ADME; details: all in-vitro metabolic studies (liver)
# luteinizing hormone (LH) = experiment: Serum LH level in ovary-resected rats carrying IUS (rod), as a sign of systemic effect; assay type: in vivo, rat; details: FIG. 2/4
# Experimental: Serum levels of luteinizing hormone (LH) are used for detecting systemic effects of the locally administered progestin. Basal serum-LH levels of ovary-resected rats are elevated compared to the LH levels of intact control animals. Undesired systemic efficacy of the uterine-administered progestin can be detected by a decrease in the LH level.
# as §2
# human androgen receptor = target: T1, human androgen receptor (Homo sapiens, UniProt P10275); experiment: hAR transactivation in PC3 cells stably transfected with hAR and MTV-luc reporter gene; assay type: cell-based; details: hAR, MTV-luc reporter
# T1 construct: expressed in transfected cells; host or cells: PC3 (human prostate carcinoma) cells, stably transfected with hAR and the MTV-luc reporter
# T1 sequence (P10275 1-920): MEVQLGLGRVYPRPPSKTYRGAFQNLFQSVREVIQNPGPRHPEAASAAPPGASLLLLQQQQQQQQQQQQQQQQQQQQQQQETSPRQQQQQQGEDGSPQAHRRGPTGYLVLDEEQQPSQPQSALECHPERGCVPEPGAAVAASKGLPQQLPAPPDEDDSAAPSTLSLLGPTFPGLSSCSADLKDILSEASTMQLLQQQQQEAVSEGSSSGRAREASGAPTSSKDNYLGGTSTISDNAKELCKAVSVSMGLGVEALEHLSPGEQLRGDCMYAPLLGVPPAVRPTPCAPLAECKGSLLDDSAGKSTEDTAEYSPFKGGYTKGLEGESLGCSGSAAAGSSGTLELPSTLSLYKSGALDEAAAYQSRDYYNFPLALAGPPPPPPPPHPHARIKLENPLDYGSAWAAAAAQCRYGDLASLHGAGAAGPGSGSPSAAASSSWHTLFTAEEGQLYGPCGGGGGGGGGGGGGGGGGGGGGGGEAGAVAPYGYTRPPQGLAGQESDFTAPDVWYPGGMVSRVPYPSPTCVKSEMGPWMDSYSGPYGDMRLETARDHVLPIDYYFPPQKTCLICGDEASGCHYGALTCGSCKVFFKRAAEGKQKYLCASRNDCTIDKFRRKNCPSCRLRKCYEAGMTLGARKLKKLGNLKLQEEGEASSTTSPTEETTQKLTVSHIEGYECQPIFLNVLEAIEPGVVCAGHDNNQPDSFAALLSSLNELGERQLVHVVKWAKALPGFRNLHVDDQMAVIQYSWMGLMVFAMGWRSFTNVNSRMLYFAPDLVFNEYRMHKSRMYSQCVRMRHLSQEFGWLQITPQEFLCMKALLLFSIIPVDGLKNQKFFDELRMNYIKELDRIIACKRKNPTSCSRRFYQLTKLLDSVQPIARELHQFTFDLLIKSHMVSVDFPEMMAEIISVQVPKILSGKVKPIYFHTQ
# Experimental: For this, different concentrations of the test substances were to cells with stable expression of the human androgen receptor, and activation of the androgen receptor can be detected via a reporter gene.
# For transactivation studies, PC3 (human prostate carcinoma) cells which have been stably transfected with hAR and the MTV-luc reporter gene were used. […] The cells were cultured at 37° C. and 5% CO2. The test medium corresponded to the culture medium, except that 10% FCS was replaced with 5% activated carbon-treated FCS (CCS). Cells were seeded in wells of a 96 well plate (“CulturPlate” from Packard #6005180) with 2×10^4 cells/well/200 μl of test medium. The cells were incubated with different concentrations of the test substances, and 80 μl of substrate were measured using the “steadylite HTS Reporter Gene Assay System” from Perkin Elmer.
# [4] = Mirena use; cited from earlier work
# [5] = dose range tested: compound A 0.6-10 μg per animal and day, compound B 1-45 μg/animal and day
Compound,local efficacy by way of weight gain in the IUS-carrying uterine horn (uterus),break-down rate in vitro (liver) for humans [1],break-down rate in vivo [2],"rate of release from the IUS at which IGFBP-1 gene expression is induced, lower than with levonorgestrel (IGFBP-1)",break-down rate in in-vitro metabolic studies (liver) [3],LH decrease (systemic side effect) (luteinizing hormone (LH); 10 μg/animal and day dose),LH decrease (systemic side effect) (luteinizing hormone (LH); [5]),EC50 (human androgen receptor),average plasma levels of active ingredient [4]
"CC[C@]12CCC3C4CCC(=O)C=C4CCC3C1[C@@H]1C[C@@H]1[C@@]21CCCO1 (stereo partly drawn) [compound A, 18-methyl-15β,16β-methylene-19-nor-20-spirox-4-en-3-one]",dose-dependent local efficacy by way of weight gain,Very rapid break-down rates,very fast break-down rate,approx. 7 ×,very fast break-down rate,exception,no LH decrease,–,–
"CC[C@]12CCC3C4CCC(=O)C=C4C4CC4C3C1[C@@H]1C[C@@H]1[C@@]21CCCO1 (stereo partly drawn) [compound B, 18-methyl-6α,7α,15β,16β-dimethylene-19-nor-20-spirox-4-en-3-one]",dose-dependent local efficacy by way of weight gain,Very rapid break-down rates,very fast break-down rate,–,very fast break-down rate,–,no LH decrease,0.056 µM,–
C#C[C@]1(O)CC[C@H]2[C@@H]3CCC4=CC(=O)CC[C@@H]4[C@H]3CC[C@@]21CC [levonorgestrel],–,–,–,–,–,–,–,–,around 206 pg/ml
